Laboratory results taken from PMC9962029, “Inhibition of Hepatitis B Virus (HBV) by Tachyplesin, a Marine Antimicrobial Cell-Penetrating Peptide” (Pharmaceutics, 2023).
Residues, ends and D or L forms follow the SMILES beside them.

Columns and labels:
Huh7 cells = assay: MTT cytotoxicity assay in Huh7 cells; assay type: cell-based, human; conditions: 48 h, up to 12 µM Tpl, three independent experiments
Method: (§1) MTT assay was used to identify the non-cytotoxic concentrations of Tpl. Cell viability was measured using MTT (3-(4,5_dimethylthaizol-2-yl)-2,5-diphenyltetrazolium bromide) assay. Approximately 10,000 cells were seeded per well in 96-well plates and kept overnight at 37 °C and 5% CO2 to achieve more than 80% confluency. Thereafter, cells were treated with various concentrations of Tpl for 48 h. After 48 h, media was removed, and cells were washed with PBS. MTT reagent was added at a final concentration of 1 mg/mL and kept for 4 h at 37 °C and 5% CO2. Thereafter, 100 µL of DMSO was added to dissolve the formazan crystals formed, and absorbance was determined at a wavelength of 570 nm with a background wavelength of 630 nm (Multiskan GO microplate spectrophotometer, Thermo Scientific, Waltham, MA, USA).

HepG2 cells = assay: MTT cytotoxicity assay in HepG2 cells; assay type: cell-based, human; conditions: 48 h, up to 12 µM Tpl, three independent experiments
Method: as §1

CC[C@H](C)[C@@H]1NC(=O)CNC(=O)[C@H](CCCNC(=N)N)NC(=O)[C@H](Cc2ccc(O)cc2)NC(=O)[C@@H]2CSSC[C@H](NC1=O)C(=O)N[C@@H](Cc1ccc(O)cc1)C(=O)N[C@@H](CCCNC(=N)N)C(=O)N[C@@H](CCCNC(=N)N)C(=O)N[C@H](C(=O)N[C@@H](CCCNC(=N)N)C(=O)NCC(=O)N[C@@H](CCCCN)C(N)=O)CSSC[C@H](NC(=O)[C@H](Cc1c[nH]c3ccccc13)NC(=O)[C@@H](N)CCCCN)C(=O)N[C@@H](Cc1ccccc1)C(=O)N[C@@H](CCCNC(=N)N)C(=O)N[C@@H](C(C)C)C(=O)N2 [Tpl] (HELM PEPTIDE1{K.W.C.F.R.V.C.Y.R.G.I.C.Y.R.R.C.R.G.K.[am]}$PEPTIDE1,PEPTIDE1,3:R3-16:R3|PEPTIDE1,PEPTIDE1,7:R3-12:R3$$$V2.0)
Cell viability (Huh7 cells): more than 85%
Cell viability (HepG2 cells): more than 85%
